Laboratory results taken from ChEMBL document CHEMBL1157938, “Cytotoxicity and inhibition of DNA topoisomerase I of polyhydroxylated triterpenoids and triterpenoid glycosides” (Bioorg Med Chem Lett, 2010).
Active and inactive are the calls of the source. The rule behind the calls is not given here.

Experiments:
PC-3 [1] = test: Cytotoxicity against human PC3 cells after 48 hrs by WST8 assay; type: functional; conditions: PC-3, 48 h
HL-60 [2] = test: Cytotoxicity against human HL60 cells after 48 hrs by WST8 assay; type: functional; conditions: HL-60, 48 h
DNA topoisomerase 1 [3] = target: T1, DNA topoisomerase 1 (Homo sapiens, UniProt P11387); test: Inhibition of human DNA topoisomerase 1-mediated relaxation of supercoiled DNA by gel electrophoresis
T1 sequence (P11387 whole entry): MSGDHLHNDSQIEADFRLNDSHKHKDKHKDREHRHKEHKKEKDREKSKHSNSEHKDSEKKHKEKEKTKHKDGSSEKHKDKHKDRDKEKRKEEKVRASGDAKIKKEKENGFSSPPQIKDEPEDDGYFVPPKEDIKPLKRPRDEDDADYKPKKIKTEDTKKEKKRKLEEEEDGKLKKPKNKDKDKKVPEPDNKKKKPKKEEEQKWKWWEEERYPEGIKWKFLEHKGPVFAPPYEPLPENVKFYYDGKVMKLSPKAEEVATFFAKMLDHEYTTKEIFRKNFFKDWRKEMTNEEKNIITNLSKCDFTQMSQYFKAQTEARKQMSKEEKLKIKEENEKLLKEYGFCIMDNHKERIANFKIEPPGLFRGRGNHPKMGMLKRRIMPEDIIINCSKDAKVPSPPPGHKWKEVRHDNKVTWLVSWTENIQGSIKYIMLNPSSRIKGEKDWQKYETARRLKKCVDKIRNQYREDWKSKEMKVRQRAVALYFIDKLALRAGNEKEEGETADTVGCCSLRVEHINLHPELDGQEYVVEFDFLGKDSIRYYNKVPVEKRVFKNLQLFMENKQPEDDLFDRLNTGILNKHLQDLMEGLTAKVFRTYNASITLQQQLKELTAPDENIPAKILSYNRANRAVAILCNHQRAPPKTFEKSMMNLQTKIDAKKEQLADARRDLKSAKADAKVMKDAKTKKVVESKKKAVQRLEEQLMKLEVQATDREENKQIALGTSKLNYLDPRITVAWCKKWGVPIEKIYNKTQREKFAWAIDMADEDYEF

[4] = target: DNA topoisomerase 2-alpha (Homo sapiens, UniProt P11388); test: Inhibition of human DNA topoisomerase 2-mediated relaxation of supercoiled DNA by gel electrophoresis
Sequence of DNA topoisomerase 2-alpha (P11388 whole entry): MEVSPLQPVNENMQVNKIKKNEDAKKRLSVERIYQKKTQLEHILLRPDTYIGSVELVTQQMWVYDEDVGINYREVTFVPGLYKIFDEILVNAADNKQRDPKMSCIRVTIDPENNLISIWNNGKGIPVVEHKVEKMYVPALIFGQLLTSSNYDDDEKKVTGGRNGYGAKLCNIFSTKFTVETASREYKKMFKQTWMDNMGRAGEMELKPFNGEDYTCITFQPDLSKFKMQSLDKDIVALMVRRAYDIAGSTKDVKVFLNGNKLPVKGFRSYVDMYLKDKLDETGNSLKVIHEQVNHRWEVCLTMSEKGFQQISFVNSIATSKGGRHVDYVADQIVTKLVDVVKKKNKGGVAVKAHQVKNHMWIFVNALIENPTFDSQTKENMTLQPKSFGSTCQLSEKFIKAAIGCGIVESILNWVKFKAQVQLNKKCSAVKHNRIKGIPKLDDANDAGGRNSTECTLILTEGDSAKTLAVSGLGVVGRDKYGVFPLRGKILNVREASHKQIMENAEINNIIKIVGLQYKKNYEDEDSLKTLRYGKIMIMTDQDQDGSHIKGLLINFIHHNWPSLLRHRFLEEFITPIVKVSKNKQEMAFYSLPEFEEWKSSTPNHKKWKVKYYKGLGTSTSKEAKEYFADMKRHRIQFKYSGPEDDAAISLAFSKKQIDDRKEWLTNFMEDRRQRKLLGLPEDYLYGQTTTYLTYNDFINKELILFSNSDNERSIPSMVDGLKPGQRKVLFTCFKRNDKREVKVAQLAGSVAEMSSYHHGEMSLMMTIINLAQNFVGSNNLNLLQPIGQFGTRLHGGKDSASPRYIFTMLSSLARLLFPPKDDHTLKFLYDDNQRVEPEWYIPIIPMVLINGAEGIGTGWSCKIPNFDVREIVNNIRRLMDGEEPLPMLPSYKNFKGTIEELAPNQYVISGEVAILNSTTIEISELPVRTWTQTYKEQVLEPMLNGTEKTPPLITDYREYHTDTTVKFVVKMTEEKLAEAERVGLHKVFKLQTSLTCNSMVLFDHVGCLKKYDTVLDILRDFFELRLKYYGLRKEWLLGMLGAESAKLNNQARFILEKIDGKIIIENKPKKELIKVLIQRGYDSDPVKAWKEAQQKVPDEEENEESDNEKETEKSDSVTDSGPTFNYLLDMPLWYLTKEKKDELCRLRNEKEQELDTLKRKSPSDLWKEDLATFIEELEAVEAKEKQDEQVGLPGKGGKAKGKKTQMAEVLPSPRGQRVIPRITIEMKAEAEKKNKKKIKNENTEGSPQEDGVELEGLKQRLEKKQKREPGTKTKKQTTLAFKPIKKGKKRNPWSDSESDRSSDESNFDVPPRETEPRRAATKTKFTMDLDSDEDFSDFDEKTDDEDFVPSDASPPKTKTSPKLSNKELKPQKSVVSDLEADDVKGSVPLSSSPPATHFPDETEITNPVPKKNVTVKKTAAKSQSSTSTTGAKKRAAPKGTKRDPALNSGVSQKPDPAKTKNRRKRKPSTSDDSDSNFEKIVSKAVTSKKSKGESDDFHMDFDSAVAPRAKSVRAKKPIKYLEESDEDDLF

[5] = Cytotoxicity against human MRC5 cells after 48 hrs by WST8 assay; type: cell-based
[6] = target: T2, DNA topoisomerase 1 (Homo sapiens) (UniProt P11387); test: Inhibition of human DNA topoisomerase 1 assessed as prevention of DNA-enzyme complex formation
T2 sequence (whole entry): T1 sequence (P11387 whole entry)

A549 [7] = test: Cytotoxicity against human A549 cells after 48 hrs by WST8 assay; type: functional; conditions: A549, 48 h
[8] = target: T2, DNA topoisomerase 1 (Homo sapiens); test: Inhibition of human DNA topoisomerase 1-mediated relaxation of supercoiled DNA at 63 to 125 uM
PANC-1 [9] = test: Cytotoxicity against human PANC1 cells after 48 hrs by WST8 assay; type: functional; conditions: PANC-1, 48 h
[10] = target: T2, DNA topoisomerase 1 (Homo sapiens); test: Inhibition of human DNA topoisomerase 1 assessed as stabilize DNA-enzyme covalent complex
DNA topoisomerase 1 [11] = target: T1, DNA topoisomerase 1; test: Inhibition of human DNA topoisomerase 1 at free enzyme state
[12] = target: T2, DNA topoisomerase 1 (Homo sapiens); test: Inhibition of human DNA topoisomerase 1-mediated relaxation of supercoiled DNA at 450 uM
[13] = target: T2, DNA topoisomerase 1 (Homo sapiens); test: Inhibition of human DNA topoisomerase 1-mediated relaxation of supercoiled DNA at 312 uM
PANC-1 [14] = test: Cytotoxicity against human PANC1 cells at 25 uM after 48 hrs by WST8 assay; type: functional, cell-based
PC-3 [15] = test: Cytotoxicity against human PC3 cells at 25 uM after 48 hrs by WST8 assay; type: functional, cell-based
HL-60 [16] = test: Cytotoxicity against human HL60 cells at 25 uM after 48 hrs by WST8 assay; type: functional, cell-based
A549 [17] = test: Cytotoxicity against human A549 cells at 25 uM after 48 hrs by WST8 assay; type: functional, cell-based
MRC5 = test: Cytotoxicity against human MRC5 cells at 25 uM after 48 hrs by WST8 assay; type: cell-based; conditions: mrc5, 48 h
[18] = target: T2, DNA topoisomerase 1 (Homo sapiens); test: Inhibition of human DNA topoisomerase 1 assessed as intercalate into DNA at 312 uM

Compound | GI50 (PC-3 [1]) | GI50 (HL-60 [2]) | IC50 (DNA topoisomerase 1 [3]) | IC50 [4] | GI50 at 48 h [5] | inhibition [6] | GI50 (A549 [7]) | inhibition [8] | GI50 (PANC-1 [9]) | inhibition [10] | IC50 (DNA topoisomerase 1 [11]) | inhibition [12] | inhibition [13] | growth inhibition (GI) (PANC-1 [14]) | growth inhibition (GI) (PC-3 [15]) | growth inhibition (GI) (HL-60 [16]) | growth inhibition (GI) (A549 [17]) | growth inhibition (GI) (MRC5) | Activity [18]
C/C=C(/C)C(=O)O[C@H]1[C@H](OC(=O)/C(C)=C\C)[C@]2(CO)[C@H](O)C[C@]3(C)C(=CC[C@@H]4[C@@]5(C)CC[C@H](O[C@@H]6O[C@H](C(=O)O)[C@@H](O)[C@H](O[C@@H]7O[C@@H](CO)[C@H](O)[C@H]7O)[C@H]6O[C@@H]6O[C@H](CO)[C@@H](O)[C@H](O)[C@H]6O)[C@](C)(CO)[C@@H]5CC[C@]43C)[C@@H]2CC1(C)C | 1.6 µM | 1.94 µM | 53 µM | > 250 µM | 5.5 µM | Active | 6.36 µM | Active | 11.1 µM | inactive | 23.8 µM | – | – | – | – | – | – | – | –
C/C=C(/C)C(=O)O[C@H]1[C@H](OC(=O)/C(C)=C\C)[C@]2(CO)[C@H](O)[C@H](O)[C@]3(C)C(=CC[C@@H]4[C@@]5(C)CC[C@H](O[C@@H]6O[C@H](C(=O)O)[C@@H](O)[C@H](O[C@@H]7O[C@@H](CO)[C@H](O)[C@H]7O)[C@H]6O[C@@H]6O[C@H](CO)[C@H](O)[C@H](O)[C@H]6O)C(C)(C)[C@@H]5CC[C@]43C)[C@@H]2CC1(C)C | 14.3 µM | 16.9 µM | 32.7 µM | > 250 µM | 5.26 µM | Active | 4.58 µM | Active | 21.5 µM | inactive | 23.8 µM | – | – | – | – | – | – | – | –
C/C=C(/C)C(=O)O[C@H]1[C@H](OC(=O)/C(C)=C\C)[C@]2(CO)[C@H](O)C[C@]3(C)C(=CC[C@@H]4[C@@]5(C)CC[C@H](O)C(C)(C)[C@@H]5CC[C@]43C)[C@@H]2CC1(C)C | 6.84 µM | 5.46 µM | > 250 µM | > 250 µM | 7.18 µM | – | 5.48 µM | – | 11.2 µM | – | – | inactive | – | – | – | – | – | – | –
C/C=C(/C)C(=O)O[C@H]1[C@H](O)[C@]2(CO)[C@H](O)C[C@]3(C)C(=CC[C@@H]4[C@@]5(C)CC[C@H](O[C@@H]6O[C@H](C(=O)O)[C@@H](O)[C@H](O[C@@H]7O[C@@H](CO)[C@H](O)[C@H]7O)[C@H]6O[C@@H]6O[C@H](CO)[C@@H](O)[C@H](O)[C@H]6O)[C@](C)(CO)[C@@H]5CC[C@]43C)[C@@H]2CC1(C)C [AESCULIOSIDE IIB] | – | – | – | – | – | – | – | – | – | – | – | – | inactive | inactive | inactive | inactive | inactive | Not Active | Active
C/C=C(\C)C(=O)O[C@H]1[C@H](OC(=O)/C(C)=C/C)[C@]2(CO)[C@H](O)[C@H](O)[C@]3(C)C(=CC[C@@H]4[C@@]5(C)CC[C@H](O[C@@H]6O[C@H](C(=O)O)[C@@H](O)[C@H](O[C@@H]7O[C@@H](CO)[C@H](O)[C@H]7O)[C@H]6O[C@@H]6O[C@H](CO)[C@@H](O)[C@H](O)[C@H]6O)[C@](C)(CO)[C@@H]5CC[C@]43C)[C@@H]2CC1(C)C [AESCULIOSIDE IIID] | 14.6 µM | 15.2 µM | 48.6 µM | > 250 µM | 9.01 µM | – | 23.7 µM | Active | 21.7 µM | – | – | – | – | – | – | – | – | – | Active
C/C=C(/C)C(=O)O[C@H]1[C@H](OC(=O)/C(C)=C/C)C(C)(C)C[C@H]2C3=CC[C@@H]4[C@@]5(C)CC[C@H](O[C@@H]6O[C@H](C(=O)O)[C@@H](O)[C@H](O[C@@H]7O[C@@H](CO)[C@H](O)[C@H]7O)[C@H]6O[C@@H]6O[C@H](CO)[C@@H](O)[C@H](O)[C@H]6O)[C@](C)(CO)[C@@H]5CC[C@@]4(C)[C@]3(C)[C@@H](O)[C@@H](O)[C@]21CO [AESCULIOSIDE IIIE] | 12.8 µM | 14 µM | 45.1 µM | > 250 µM | 21.5 µM | – | 21.3 µM | Active | 21.4 µM | – | – | – | – | – | – | – | – | – | Active
C/C=C(/C)C(=O)O[C@H]1[C@H](OC(=O)C(C)CC)[C@]2(CO)[C@H](O)[C@H](O)[C@]3(C)C(=CC[C@@H]4[C@@]5(C)CC[C@H](O[C@@H]6O[C@H](C(=O)O)[C@@H](O)[C@H](O[C@@H]7O[C@@H](CO)[C@H](O)[C@H]7O)[C@H]6O[C@@H]6O[C@H](CO)[C@H](O)[C@H](O)[C@H]6O)C(C)(C)[C@@H]5CC[C@]43C)[C@@H]2CC1(C)C (stereo not given in full) [AESCULIOSIDE IVA] | 9.22 µM | 7.26 µM | 51.8 µM | > 250 µM | 4.78 µM | Active | 9.91 µM | Active | 17.6 µM | inactive | 23.8 µM | – | – | – | – | – | – | – | –
C/C=C(/C)C(=O)O[C@H]1[C@H](OC(=O)C(C)CC)[C@]2(CO)[C@H](O)C[C@]3(C)C(=CC[C@@H]4[C@@]5(C)CC[C@H](O[C@@H]6O[C@H](C(=O)O)[C@@H](O)[C@H](O[C@@H]7O[C@@H](CO)[C@H](O)[C@H]7O)[C@H]6O[C@@H]6O[C@H](CO)[C@H](O)[C@H](O)[C@H]6O)C(C)(C)[C@@H]5CC[C@]43C)[C@@H]2CC1(C)C (stereo not given in full) [AESCULIOSIDE IVC] | 7.7 µM | 8.02 µM | 49.7 µM | > 250 µM | 4.34 µM | Active | 10.2 µM | Active | 15.6 µM | inactive | 23.8 µM | – | – | – | – | – | – | – | –
C/C=C(/C)C(=O)O[C@H]1[C@H](O)[C@]2(CO)[C@H](O)[C@H](O)[C@]3(C)C(=CC[C@@H]4[C@@]5(C)CC[C@H](O[C@@H]6O[C@H](C(=O)O)[C@@H](O)[C@H](O[C@@H]7OC[C@@H](O)[C@H](O)[C@H]7O)[C@H]6O[C@@H]6O[C@H](CO)[C@@H](O)[C@H](O)[C@H]6O)C(C)(C)[C@@H]5CC[C@]43C)[C@@H]2CC1(C)C [ERYNGIOSIDE 94A] | 7.99 µM | 9.38 µM | > 250 µM | > 250 µM | 8.51 µM | – | 7.34 µM | – | – | – | – | – | inactive | inactive | – | – | – | – | –
